Assay: Release by thiol addition and hydride reduction (TLC)
Type: physicochemical
Conditions: water with a drop of acetic acid, 2 hours
Protocol: A portion of the amide was dissolved in water with a drop of acetic acid. This yellow solution was divided into two portions. One portion was treated with sodium dithionite, a reducing agent, and the other was treated with 2-mercaptoethanol. After 2 hours, the samples were diluted with water and extracted with ethyl acetate.

**Q.** For `CN1CCN(C(=O)CC(C)(C)C2=CC(=O)c3ccccc3C2=O)CC1` [Example 8], which “Release by thiol addition, TLC result” value (2-mercaptoethanol) is on record?
**A.** The value was “the amide had been consumed with a colorless, non-polar product (lactone) being formed”.

**Q.** What about the “Release by hydride reduction, TLC result” value (sodium dithionite) of the same compound?
**A.** Its value is “the amide had been consumed with a colorless, non-polar product (lactone) being formed”.

From patent US20120171229A1, “SYNTHETIC NANOCARRIERS WITH REACTIVE GROUPS THAT RELEASE BIOLOGICALLY ACTIVE AGENTS” (Selecta Biosciences, Inc., priority 2010, published 2012)
